Source: patent US8063221B2, “Aminoquinolones as GSK-3 inhibitors” (Kyorin Pharmaceutical Co., Ltd., priority 2006, dated 2011)
Converted amounts (≈) assume the structure as drawn. Read-outs that look alike come from different tables or passages of the source.

Tests used:
[1] = system: S. aureus Smith; assay: Antibacterial activity (MIC), S. aureus; format: cell-based; conditions: Staphylococcus aureus
From the text: (§1) As used herein, a minimum inhibitory concentration (MIC) for bacterial growth assay is the lowest level of a compound needed to cause an inhibition to bacterial growth in culture medium. In certain embodiments, the antibacterial activity of compounds herein, measured as MIC.
(§2) In certain embodiments, GSK3 inhibitors provided herein are substantially free of antibacterial activity or having very low antibacterial activity. The antibacterial activity can be measured by methods known in the art by estimating a minimum inhibitory concentration (MIC) for test compounds. A MIC is the lowest level of a compound needed to cause an inhibition to bacterial growth in a culture medium. […] (Clinical and Laboratory Standards Institute. Methods for Dilution Antimicrobial Susceptibility Tests for Bacteria That Grow Aerobically; Approved Standard-Sixth Edition: CLSI document […]. CLSI, Wayne, Pa. (2003))
(§3) Antibacterial activity for E. coli, ATCC8739 andS. aureus Smith expressed as MIC (μM) is provided as follows: […]

[2] = system: E. coli, ATCC8739; assay: Antibacterial activity (MIC), E. coli; format: cell-based; conditions: Escherichia coli
From the text: as §1, §2, §3

[3] = biological target: T1, recombinant full-length human GSK3β (Homo sapiens, UniProt P49841); assay: Luciferase-coupled cell-free GSK3β kinase assay; format: biochemical
T1 construct: recombinant full-length human GSK3β (Upstate); purchased Upstate
Method in brief: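 GSK3β, 10-25 ng, was incubated with compound for 1 h at 30° C in MOPS pH 7.0 buffer containing 62.5 μM phospho-glycogen synthase peptide-2 and 5 μM ATP. Remaining ATP was read by KinaseGlo luminescence, and IC50 was fitted from % inhibition relative to maximal inhibition.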

[4] = Table 2, S. aureus Smith, read-out: Antimicrobial MIC [μM] S. aureus
[5] = ATCC8739, Table 2, E. coli ATCC8739, read-out: Antimicrobial MIC [μM] E. Coli
[6] = Table 1, read-out: Antibacterial MIC (μM) S. aureus Smith
[7] = ATCC8739, Table 1, E. coli ATCC8739, read-out: Antibacterial MIC (μM) E.Coli

T1 sequence (P49841 whole entry): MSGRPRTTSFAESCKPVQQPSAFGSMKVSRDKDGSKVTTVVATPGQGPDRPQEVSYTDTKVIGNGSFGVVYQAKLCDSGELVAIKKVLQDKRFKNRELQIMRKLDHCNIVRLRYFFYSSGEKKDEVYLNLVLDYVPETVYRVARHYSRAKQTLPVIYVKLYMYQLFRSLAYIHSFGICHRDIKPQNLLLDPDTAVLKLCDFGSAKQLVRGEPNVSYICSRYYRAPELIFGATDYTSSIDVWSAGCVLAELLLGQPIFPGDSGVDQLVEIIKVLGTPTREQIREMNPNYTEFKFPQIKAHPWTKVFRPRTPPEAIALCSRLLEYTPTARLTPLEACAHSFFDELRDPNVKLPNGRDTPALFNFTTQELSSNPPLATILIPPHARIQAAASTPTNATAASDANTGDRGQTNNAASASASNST

CC(C)OCCCNc1c(F)c(N)c2c(=O)c(C(=O)O)cn3c2c1OCC3(C)C [compound 40]
MIC [1, 4]: > 50 µM
MIC [2, 5]: > 50 µM
IC50 ([3]; Table 2): 0.1 to 0.5 µM

Nc1c(F)c(NCCCc2ccccc2)c(F)c2c1c(=O)c(C(=O)O)cn2C1CC1 [compound 6]
MIC [1, 6]: 0.5 to 10 µM (≈ 0.207 to 4.13 µg/mL)
MIC [2, 7]: 10 to 50 µM (≈ 4.13 to 20.7 µg/mL)
IC50 ([3]; Table 1): < 0.1 µM

C[C@H]1COc2c(NCCCn3ccnc3)c(F)c(N)c3c(=O)c(C(=O)O)cn1c23 [compound 20]
MIC [1, 4]: 0.5 to 10 µM (≈ 0.201 to 4.01 µg/mL)
MIC [2, 5]: 10 to 50 µM (≈ 4.01 to 20.1 µg/mL)
IC50 ([3]; Table 2): 0.1 to 0.5 µM

CC1COc2c(NCCNc3ccccn3)c(F)c(N)c3c(=O)c(C(=O)O)cn1c23 (stereo not drawn) [compound 90]
MIC [1, 6]: 0.5 to 10 µM (≈ 0.207 to 4.13 µg/mL)
MIC [2, 7]: 0.5 to 10 µM (≈ 0.207 to 4.13 µg/mL)
IC50 ([3]; Table 1): < 0.1 µM

COc1c(NCCCn2ccnc2)c(F)c(N)c2c(=O)ccn(C3CC3)c12 [compound 2]
MIC [1, 4]: > 50 µM
MIC [2, 5]: > 50 µM
IC50 ([3]; Table 2): 0.1 to 0.5 µM

COc1c(NCCNc2ccccn2)c(F)c(N)c2c(=O)c(C(=O)O)cn(C)c12 [Example 129]
MIC [1, 4]: 10 to 50 µM (≈ 4.01 to 20.1 µg/mL)
MIC [2, 5]: 10 to 50 µM (≈ 4.01 to 20.1 µg/mL)
IC50 ([3]; Table 2): 0.1 to 0.5 µM

CC1(C)COc2c(NCCCn3ccnc3)c(F)c(N)c3c(=O)ccn1c23 [compound 79]
MIC ([1]; read-out: Antimicrobial MIC [μM] S. aureus): > 50 µM
MIC ([2]; ATCC8739, read-out: Antimicrobial MIC [μM] E. Coli): > 50 µM
IC50 ([3]; Table 2): < 0.1 µM

Nc1c(F)c(NCCCc2ccccc2)c(F)c2c1c(=O)ccn2C1CCCC1 [compound 72]
MIC [1, 6]: 10 to 50 µM (≈ 3.97 to 19.9 µg/mL)
MIC [2, 7]: 10 to 50 µM (≈ 3.97 to 19.9 µg/mL)
IC50 ([3]; Table 1): < 0.1 µM

CC1(C)COc2c(NCCCn3cnc4ccccc43)c(F)c(N)c3c(=O)c(C(=O)O)cn(c23)C1 [compound 52]
MIC [1, 4]: 0.5 to 10 µM (≈ 0.24 to 4.8 µg/mL)
MIC [2, 5]: 0.5 to 10 µM (≈ 0.24 to 4.8 µg/mL)
IC50 ([3]; Table 2): 0.1 to 0.5 µM

Nc1c(F)c(NCCCn2ccnc2)c(F)c2c1c(=O)ccn2C1CC1 [compound 26]
MIC [1, 6]: > 50 µM
MIC [2, 7]: > 50 µM
IC50 ([3]; Table 1): 0.1 to 0.5 µM

Nc1c(F)c(NCCNc2ccccn2)c(F)c2c1c(=O)c(C(=O)O)cn2CCc1ccccc1 [compound 49]
MIC ([1]; read-out: Antibacterial MIC (μM) S. aureus Smith): 10 to 50 µM (≈ 4.79 to 24 µg/mL)
MIC ([2]; ATCC8739, read-out: Antibacterial MIC (μM) E.Coli): 10 to 50 µM (≈ 4.79 to 24 µg/mL)
IC50 ([3]; Table 1): 0.1 to 0.5 µM

Nc1c(F)c(NCCc2ccncc2)c(F)c2c1c(=O)c(C(=O)O)cn2C1CCCC1 [compound 53]
MIC [1, 6]: 10 to 50 µM (≈ 4.28 to 21.4 µg/mL)
MIC [2, 7]: 10 to 50 µM (≈ 4.28 to 21.4 µg/mL)
IC50 ([3]; Table 1): 0.1 to 0.5 µM

NC1=C2C(=O)C(C(=O)O)=CN3CCCCOC(C(NCCNc4ccccn4)=C1F)C23 (stereo not drawn) [Example 140]
MIC [1, 4]: > 50 µM
MIC [2, 5]: > 50 µM
IC50 ([3]; Table 2): 0.5 to 1 µM

Nc1c(F)c(NCCNc2ccccn2)c2c3c1c(=O)c(C(=O)O)cn3[C@@H](CF)CO2 [Example 134]
MIC [1, 4]: < 0.5 µM
MIC [2, 5]: < 0.5 µM
IC50 ([3]; Table 2): < 0.1 µM

COc1c(OCCNc2ccccn2)c(F)c(N)c2c(=O)c(C(=O)O)cn(C3CC3)c12 [Example 132]
MIC [1, 4]: < 0.5 µM
MIC [2, 5]: 0.5 to 10 µM (≈ 0.214 to 4.28 µg/mL)
IC50 ([3]; Table 2): > 1 µM

O=C(O)c1cn(C2CC2)c2c(F)c(NCCNc3ccccn3)c(F)c(S)c2c1=O [Example 131]
MIC [1, 4]: 0.5 to 10 µM (≈ 0.216 to 4.32 µg/mL)
MIC [2, 5]: 0.5 to 10 µM (≈ 0.216 to 4.32 µg/mL)
IC50 ([3]; Table 2): < 0.1 µM

COc1c(NCCCn2ccnc2)c(F)c(N)c2c(=O)c(C(=O)O)cn(C3CCCC3)c12 [compound 78]
MIC [1, 6]: > 50 µM
MIC [2, 7]: > 50 µM
IC50 ([3]; Table 1): 0.5 to 1 µM

COc1c(NCCNc2ccccn2)c(F)c(N)c2c(=O)c(C(=O)O)c(C)n(C3CC3)c12 [Example 123]
MIC [1, 4]: > 50 µM
MIC [2, 5]: > 50 µM
IC50 ([3]; Table 2): < 0.1 µM

Nc1c(F)c(NCCNc2ccccn2)c(F)c2c1c(=O)ccn2C1CC1 [compound 15]
MIC [1, 6]: > 50 µM
MIC [2, 7]: > 50 µM
IC50 ([3]; Table 1): 0.1 to 0.5 µM

CC1(C)COc2c(NCCCn3ccnc3)c(F)c(N)c3c(=O)c(C(=O)O)cn(c23)C1 [compound 26]
MIC [1, 4]: 10 to 50 µM (≈ 4.29 to 21.5 µg/mL)
MIC [2, 5]: 10 to 50 µM (≈ 4.29 to 21.5 µg/mL)
IC50 ([3]; Table 2): < 0.1 µM

CC1COc2c(NCCNc3cccc(C(F)(F)F)n3)c(F)c(N)c3c(=O)c(C(=O)O)cn1c23 (stereo not drawn) [compound 12]
MIC [1, 4]: 0.5 to 10 µM (≈ 0.241 to 4.81 µg/mL)
MIC [2, 5]: 10 to 50 µM (≈ 4.81 to 24.1 µg/mL)
IC50 ([3]; Table 2): < 0.1 µM
